The source of these data is US20090269795A1, “Mutant alpha4betadelta GABAA receptor and methods of treating anxiety or irritability” (priority 2007, published 2009).

Assay [1] deals with T1, α1β2γ2 receptors (Rattus norvegicus, UniProt P62813+P63138).
T1 construct: expressed in transfected cells; host or cells: HEK-293
Briefly: Whole cell patch clamp of GABA-gated current, recombinant receptors in HEK-293 cells. The format is cell-based. Conditions: 30 nM THP. An excerpt:
Recombinant receptors: Transfection—Plasmids obtained from S. Vicini (rat α1, α5, β2, β3 and γ2), P. Whiting (human α4 and δ) and N. L. Harrison (mouse α4) were propagated in E coli DH5α and prepared using Qiagen Maxi- or Midi-prep kits. (Rat, mouse and human α1, β2, β3 and γ2 subunits are identical or nearly identical.) All receptors were transfected at a 1:1:1 ratio, except α1β2γ2 (1:1:5)^12, α4βδ (5:1:5)^13 and α4β2γ2 (5:1:1). HEK-293 cells were maintained in medium (DMEM:Ham's F-12 1:1) supplemented with 10% fetal calf serum at 37° C. in a humid 5% CO2 atmosphere.
The pipet solution contained (in mM): N-methyl-D-glucamine chloride 120, Cs4BAPTA 5 (Calbiochem), Mg-ATP 5, and an ATP regeneration system (20 mM Tris phosphocreatine and creatine kinase). Internal [Cl^−] or the holding potential were varied, using gluconate as the anion, to alter the direction of Cl^− flow, corrected for the junction potential.
HEK-293 cells were maintained in medium (DMEM:Ham's F-12 1:1) supplemented with 10% fetal calf serum at 37° C. in a humid 5% CO2 atmosphere.
(In general: The patch-clamp technique gives a direct electrical read-out from membranes.)

The subject of assay [2] is CA1 hippocampal pyramidal cells. Briefly: Tonic GABAergic current, perforated-patch voltage-clamp, hippocampal slice. The format is cell-based, mouse. As to the method:
Tonic current was recorded as the difference current produced by the selective GABAA receptor antagonist gabazine (120 μM) before and after 30 nM THP^4,29, while gramicidin perforated-patch recordings^33 were accomplished using 140 mM KCl plus 25 μg ml^−1 gramicidin in the pipet solution, recorded when the access resistance dropped to <60 MΩ after tight seal formation. Estimates of the direction of Cl^− current were obtained by recording using tight-seal cell-attached techniques^31 (>1 GΩ seal) in current clamp mode. A downward deflection signified outward (i.e., hyperpolarizing) Cl^− current.
One complication of whole-cell patch clamp recording is that normal ionic gradients are disrupted. Therefore, in order to verify that THP reduced tonic GABAergic currents in intact cells under conditions of unperturbed internal Cl^−, we directly recorded pharmacologically isolated tonic GABAergic current from the soma using perforated-patch voltage-clamp techniques in the hippocampal slice.

In assay [3] the test system is thalamic relay neurons. Nature of the assay: Tonic current in thalamic relay neurons, slice. The format is cell-based, mouse. Conditions: pre-pubertal; n=6. As to the method: Hippocampal slice: Slice preparation^20: Animals were rapidly decapitated, and the brains removed and cooled using an ice cold solution of artificial cerebrospinal fluid (aCSF) containing (in mM): NaCl 124, KCl 5, CaCl2 2, KH2PO4 1.25, MgSO4 2, NaHCO3 26, and glucose 10, saturated with 95% O2, 5% CO2 and buffered to a pH of 7.4. Following sectioning at 400 μm on a Leica oscillating microtome, slices were incubated for one hour in oxygenated aCSF. Slice recording: Pyramidal cells in CA1 hippocampal slice^20 or thalamic relay neurons in the ventral tier were visualized using a Leica DIC-infrared upright microscope, and recorded at −50 or −60 mV using whole cell patch clamp procedures at room temperature (20-22° C., Axopatch 200B amplifier, Axon Instruments, 20 kHz sampling frequency, 2 kHz 4-pole Bessel filter) and pClamp 9.2 software. Patch pipets were fabricated to yield open tip resistances of 2-4 MΩ. Internal solution in mM for ECl=−70 (or ECl=−30): K-gluconate 141.5 (O), KCl 0 (52.3), CsCl 8.5 (145), HEPES 5, EGTA 5, CaCl2-H2O 0.5, QX-314 5 (Calbiochem), Mg-ATP 2, Li-GTP 0.5, pH 7.2, 290 mOsm. […] Electrode capacitance and series resistance were monitored and compensated; access resistance was monitored throughout the experiment, and cells discarded if the access resistance >10 MΩ. […]

T1 sequence (P62813 28-455): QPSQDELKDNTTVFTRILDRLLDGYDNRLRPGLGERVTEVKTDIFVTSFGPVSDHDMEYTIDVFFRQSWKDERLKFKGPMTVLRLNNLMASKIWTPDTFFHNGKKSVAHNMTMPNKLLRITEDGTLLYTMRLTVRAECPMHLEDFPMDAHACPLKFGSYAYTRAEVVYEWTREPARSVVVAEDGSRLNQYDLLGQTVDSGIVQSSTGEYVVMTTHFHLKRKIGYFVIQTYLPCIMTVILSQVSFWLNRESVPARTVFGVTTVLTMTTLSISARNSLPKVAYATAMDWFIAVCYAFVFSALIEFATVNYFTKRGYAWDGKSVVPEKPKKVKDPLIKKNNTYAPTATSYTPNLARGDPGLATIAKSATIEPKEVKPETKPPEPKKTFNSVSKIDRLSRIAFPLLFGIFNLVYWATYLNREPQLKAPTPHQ
T1 sequence (P63138 25-474 limits assumed): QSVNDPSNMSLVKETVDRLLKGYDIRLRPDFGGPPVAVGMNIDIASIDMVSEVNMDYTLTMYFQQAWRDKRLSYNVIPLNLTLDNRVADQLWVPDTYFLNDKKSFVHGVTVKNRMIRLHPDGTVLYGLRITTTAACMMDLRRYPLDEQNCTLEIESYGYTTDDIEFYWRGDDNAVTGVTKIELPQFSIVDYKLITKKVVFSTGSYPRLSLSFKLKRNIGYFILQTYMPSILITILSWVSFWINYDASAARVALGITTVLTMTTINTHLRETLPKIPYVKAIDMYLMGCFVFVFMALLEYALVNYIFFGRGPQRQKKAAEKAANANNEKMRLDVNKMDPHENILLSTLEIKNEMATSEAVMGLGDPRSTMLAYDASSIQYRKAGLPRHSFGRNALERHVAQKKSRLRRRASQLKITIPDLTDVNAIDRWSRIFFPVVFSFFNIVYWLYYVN
T1 sequence (P18508 39-466 partner): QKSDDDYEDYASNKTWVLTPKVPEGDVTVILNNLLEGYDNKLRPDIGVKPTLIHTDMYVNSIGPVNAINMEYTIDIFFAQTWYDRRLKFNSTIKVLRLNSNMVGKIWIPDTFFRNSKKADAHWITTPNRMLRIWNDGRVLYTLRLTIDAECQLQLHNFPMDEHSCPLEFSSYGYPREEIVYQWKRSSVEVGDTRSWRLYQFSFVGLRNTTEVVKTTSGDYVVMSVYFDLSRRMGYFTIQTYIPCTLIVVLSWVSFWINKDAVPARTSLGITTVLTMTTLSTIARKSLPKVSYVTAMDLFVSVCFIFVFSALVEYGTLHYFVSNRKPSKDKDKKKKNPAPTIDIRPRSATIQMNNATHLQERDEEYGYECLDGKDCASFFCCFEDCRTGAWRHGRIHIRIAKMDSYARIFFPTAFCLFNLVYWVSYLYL

As for `CC(=O)[C@H]1CC[C@H]2[C@@H]3CC[C@H]4C[C@H](O)CC[C@]4(C)[C@H]3CC[C@]12C` [THP, 3α-OH-5α[β]-pregnan-20-one], in assay [1], the “effect on outward current” value is given as “either increased or had no effect”. The “depression of outward GABAergic current” value in assay [2] (30 nM THP, pubertal, 1 μM TTX, 1 μM GABA) is on record as 40±8%. Moreover, in assay [2] (before puberty), the “effect on post-synaptic GABAergic tonic current” value is given as “had no effect”. Also, the “effect on reversal potential” value in assay [2] (pubertal) is on record as “did not alter the reversal potential”. Moreover, the “effect on GABA-gated conductance (gabazine-sensitive slope)” value in assay [2] (pubertal, 10 mV steps −60 to −40 mV) is listed as “decreased the GABA-gated conductance”. The “reduction of tonic current” value in assay [3] is recorded as 57±12%.
